#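 Results reflect a 48-hour exposure of cells in 96-well plates to compound at five concentrations. GI50 is the concentration that inhibits growth by half. TGI is the concentration that stops growth completely.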
# Experiments:
# Experiment in all cases: growth of human tumour cells (NCI), 48 h
# NCI-H23 lung = system: NCI-H23 lung
# LOX IMVI melanoma = system: LOX IMVI melanoma
# MCF7 breast = system: MCF7 breast
# U251 CNS = system: U251 CNS
# COLO 205 colon = system: COLO 205 colon
# SF-268 CNS = system: SF-268 CNS
# NCI-H460 lung = system: NCI-H460 lung
# OVCAR-8 ovarian = system: OVCAR-8 ovarian
# SN12C renal = system: SN12C renal
# UACC-62 melanoma = system: UACC-62 melanoma
# SF-539 CNS = system: SF-539 CNS
# HCT-116 colon = system: HCT-116 colon
# SF-295 CNS = system: SF-295 CNS
# HOP-92 NSCLC = system: HOP-92 NSCLC
# M14 melanoma = system: M14 melanoma
# MDA-MB-435 = system: MDA-MB-435
# RXF 393 renal = system: RXF 393 renal
# NCI/ADR-RES ovarian = system: NCI/ADR-RES ovarian
# MALME-3M melanoma = system: MALME-3M melanoma
# HT29 colon = system: HT29 colon
# OVCAR-3 ovarian = system: OVCAR-3 ovarian
# HOP-62 NSCLC = system: HOP-62 NSCLC
# MOLT-4 leukemia = system: MOLT-4 leukemia
# A498 renal = system: A498 renal
# K-562 leukemia = system: K-562 leukemia
# 786-0 renal = system: 786-0 renal
# BT-549 breast = system: BT-549 breast
# SK-MEL-5 melanoma = system: SK-MEL-5 melanoma
# MDA-MB-231 breast = system: MDA-MB-231 breast
# OVCAR-4 ovarian = system: OVCAR-4 ovarian
# SK-OV-3 ovarian = system: SK-OV-3 ovarian
# DU-145 prostate = system: DU-145 prostate
# CCRF-CEM leukemia = system: CCRF-CEM leukemia
# HS 578T breast = system: HS 578T breast
# HCT-15 colon = system: HCT-15 colon
# NCI-H522 lung = system: NCI-H522 lung
# SW-620 colon = system: SW-620 colon
# UACC-257 melanoma = system: UACC-257 melanoma
# SK-MEL-2 melanoma = system: SK-MEL-2 melanoma
# EKVX NSCLC = system: EKVX NSCLC
# PC-3 prostate = system: PC-3 prostate
# A549 NSCLC = system: A549 NSCLC
# CAKI-1 renal = system: CAKI-1 renal
# RPMI-8226 leukemia = system: RPMI-8226 leukemia
# HCC-2998 colon = system: HCC-2998 colon
# SNB-75 CNS = system: SNB-75 CNS
# HL-60(TB) leukemia = system: HL-60(TB) leukemia
# SNB-19 CNS = system: SNB-19 CNS
# SR leukemia = system: SR leukemia
# UO-31 renal = system: UO-31 renal
# TK-10 renal = system: TK-10 renal
smiles,measurement,setting,value
NC(=NCCCC1(c2ccccc2)CCCC1)Nc1ccc(Cl)cc1,GI50,NCI-H23 lung,1.69 µM
same,TGI,NCI-H23 lung,3.35 µM
same,GI50,LOX IMVI melanoma,1.58 µM
same,TGI,LOX IMVI melanoma,2.93 µM
same,GI50,MCF7 breast,1.65 µM
same,TGI,MCF7 breast,3.19 µM
same,GI50,U251 CNS,1.69 µM
same,TGI,U251 CNS,3.11 µM
same,GI50,COLO 205 colon,1.69 µM
same,TGI,COLO 205 colon,3.44 µM
same,GI50,SF-268 CNS,1.66 µM
same,TGI,SF-268 CNS,3.35 µM
same,GI50,NCI-H460 lung,1.69 µM
same,TGI,NCI-H460 lung,3.42 µM
same,GI50,OVCAR-8 ovarian,1.9 µM
same,TGI,OVCAR-8 ovarian,3.8 µM
same,GI50,SN12C renal,1.77 µM
same,TGI,SN12C renal,3.37 µM
same,GI50,UACC-62 melanoma,1.68 µM
same,TGI,UACC-62 melanoma,3.2 µM
same,GI50,SF-539 CNS,1.75 µM
same,TGI,SF-539 CNS,3.23 µM
same,GI50,HCT-116 colon,1.44 µM
same,TGI,HCT-116 colon,2.86 µM
same,GI50,SF-295 CNS,1.62 µM
same,TGI,SF-295 CNS,3.06 µM
same,GI50,HOP-92 NSCLC,1.36 µM
same,TGI,HOP-92 NSCLC,2.85 µM
same,GI50,M14 melanoma,1.59 µM
same,TGI,M14 melanoma,3.27 µM
same,GI50,MDA-MB-435,1.77 µM
same,TGI,MDA-MB-435,3.21 µM
same,GI50,RXF 393 renal,1.47 µM
same,TGI,RXF 393 renal,2.88 µM
same,GI50,NCI/ADR-RES ovarian,1.77 µM
same,TGI,NCI/ADR-RES ovarian,3.34 µM
same,GI50,MALME-3M melanoma,1.69 µM
same,TGI,MALME-3M melanoma,3.66 µM
same,GI50,HT29 colon,1.72 µM
same,TGI,HT29 colon,3.17 µM
same,GI50,OVCAR-3 ovarian,1.82 µM
same,TGI,OVCAR-3 ovarian,3.35 µM
same,GI50,HOP-62 NSCLC,1.69 µM
same,TGI,HOP-62 NSCLC,3.36 µM
same,GI50,MOLT-4 leukemia,1.58 µM
same,TGI,MOLT-4 leukemia,4.11 µM
same,GI50,A498 renal,1.75 µM
same,TGI,A498 renal,3.29 µM
same,GI50,K-562 leukemia,1.55 µM
same,TGI,K-562 leukemia,4.45 µM
same,GI50,786-0 renal,1.68 µM
same,TGI,786-0 renal,3.13 µM
same,GI50,BT-549 breast,1.74 µM
same,TGI,BT-549 breast,3.27 µM
same,GI50,SK-MEL-5 melanoma,1.58 µM
same,TGI,SK-MEL-5 melanoma,2.93 µM
same,GI50,MDA-MB-231 breast,1.6 µM
same,TGI,MDA-MB-231 breast,3.14 µM
same,GI50,OVCAR-4 ovarian,1.68 µM
same,TGI,OVCAR-4 ovarian,3.17 µM
same,GI50,SK-OV-3 ovarian,2.43 µM
same,TGI,SK-OV-3 ovarian,5.59 µM
same,GI50,DU-145 prostate,1.8 µM
same,TGI,DU-145 prostate,3.29 µM
same,GI50,CCRF-CEM leukemia,2.18 µM
same,TGI,CCRF-CEM leukemia,6.29 µM
same,GI50,HS 578T breast,2.19 µM
same,TGI,HS 578T breast,5.03 µM
same,GI50,HCT-15 colon,1.75 µM
same,TGI,HCT-15 colon,3.29 µM
same,GI50,NCI-H522 lung,1.68 µM
same,TGI,NCI-H522 lung,3.32 µM
same,GI50,SW-620 colon,1.85 µM
same,TGI,SW-620 colon,3.85 µM
same,GI50,UACC-257 melanoma,1.82 µM
same,TGI,UACC-257 melanoma,3.56 µM
same,GI50,SK-MEL-2 melanoma,1.95 µM
same,TGI,SK-MEL-2 melanoma,3.52 µM
same,GI50,EKVX NSCLC,1.87 µM
same,TGI,EKVX NSCLC,3.57 µM
same,GI50,PC-3 prostate,1.6 µM
same,TGI,PC-3 prostate,3.12 µM
same,GI50,A549 NSCLC,1.89 µM
same,TGI,A549 NSCLC,3.61 µM
same,GI50,CAKI-1 renal,1.93 µM
same,TGI,CAKI-1 renal,3.94 µM
same,GI50,RPMI-8226 leukemia,1.89 µM
same,TGI,RPMI-8226 leukemia,4.08 µM
same,GI50,HCC-2998 colon,1.66 µM
same,TGI,HCC-2998 colon,3.08 µM
same,GI50,SNB-75 CNS,1.07 µM
same,TGI,SNB-75 CNS,2.31 µM
same,GI50,HL-60(TB) leukemia,1.73 µM
same,TGI,HL-60(TB) leukemia,3.67 µM
same,GI50,SNB-19 CNS,1.81 µM
same,TGI,SNB-19 CNS,3.98 µM
same,GI50,SR leukemia,1.71 µM
same,TGI,SR leukemia,4.24 µM
same,GI50,UO-31 renal,1.5 µM
same,TGI,UO-31 renal,3 µM
same,GI50,TK-10 renal,1.38 µM
same,TGI,TK-10 renal,2.75 µM
